What follows are molecules tested against TG2 (Homo sapiens (Human), UniProt P21980) (assay: Transglutaminase (TG) Inhibitor Assay). Settings: fluorescence of dansyl cadaverine cross-linked into N,N-dimethylated casein; 8 point titration.
Assay type: biochemical
Experimental: Using the fluorescent amine donor, dansyl cadaverine (DSC), and the multiple glutamine bearing amine acceptor N,N-dimethylated casein (NMC), TG activity was measured via the change in fluorescence of cross-linked DSC into NMC over time.

Sequence of TG2 (P21980 whole entry): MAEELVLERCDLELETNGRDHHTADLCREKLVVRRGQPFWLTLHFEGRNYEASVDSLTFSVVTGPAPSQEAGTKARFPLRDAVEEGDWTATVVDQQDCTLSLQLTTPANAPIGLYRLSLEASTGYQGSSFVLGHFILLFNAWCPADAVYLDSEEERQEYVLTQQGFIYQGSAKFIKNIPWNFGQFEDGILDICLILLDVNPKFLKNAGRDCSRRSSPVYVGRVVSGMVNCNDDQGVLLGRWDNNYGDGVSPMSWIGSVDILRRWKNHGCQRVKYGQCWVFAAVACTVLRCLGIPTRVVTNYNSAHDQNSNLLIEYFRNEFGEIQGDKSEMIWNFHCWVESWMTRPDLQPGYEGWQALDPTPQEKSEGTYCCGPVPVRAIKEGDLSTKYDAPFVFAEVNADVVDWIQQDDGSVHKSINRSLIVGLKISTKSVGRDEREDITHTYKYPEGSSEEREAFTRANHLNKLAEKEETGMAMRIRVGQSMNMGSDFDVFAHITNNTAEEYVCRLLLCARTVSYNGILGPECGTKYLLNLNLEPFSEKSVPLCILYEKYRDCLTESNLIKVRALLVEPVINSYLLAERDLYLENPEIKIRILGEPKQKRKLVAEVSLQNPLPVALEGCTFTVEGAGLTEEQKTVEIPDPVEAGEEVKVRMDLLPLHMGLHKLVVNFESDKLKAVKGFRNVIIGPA

SMILES | IC50
CC(C)Cc1cccc2c1nc(Cn1cccc(NC(=O)[C@H](CC/C=C/C(N)=O)NC(=O)OCc3ccccc3)c1=O)n2C(=O)OC(C)(C)C [Compound 3] | < 500 nM
[2H]C([2H])(C/C=C/C(=O)N(C)C)C(OC(=O)N(C)C)C(=O)Nc1cccn(Cc2nc3cc(F)ccc3[nH]2)c1=O (stereo not drawn) [Compound 54] | 500 to 5000 nM
[2H]C([2H])(C/C=C/C(=O)N(C)C)C(OC(=O)N(C)C)C(=O)Nc1cccn(Cc2nc3cc(F)ccc3[nH]2)c1=O (stereo not drawn) [Compound 55] | 500 to 5000 nM
CN(C)C(=O)/C=C/CC[C@H](OC(=O)N(C)C)C(=O)Nc1ccnn(Cc2nc3cc(F)cc(CC(C)(C)C)c3[nH]2)c1=O [Compound 85, [(E,1S)-6-(dimethylamino)-1-[[2-[[7-(2,2-dimethylpropyl)-5-fluoro-1H-benzimidazol-2-yl]methyl]-3-oxo-pyridazin-4-yl]carbamoyl]-6-oxo-hex-4-enyl]N,N-dimethylcarbamate] | < 500 nM
COC(=O)N[C@@H](CC/C=C/C(=O)N(C)C)C(=O)Nc1cncn(Cc2nc3c(CCC(F)(F)F)cc(F)cc3n2C(=O)OC(C)(C)C)c1=O [Compound 102, tert-butyl 2-[[5-[[(E,2S)-7-(dimethylamino)-2-(methoxycarbonylamino)-7-oxo-hept-5-enoyl]amino]-6-oxo-pyrimidin-1-yl]methyl]-6-fluoro-4-(3,3,3-trifluoropropyl)benzimidazole-1-carboxylate] | < 500 nM
COC(=O)N[C@@H](CC/C=C/C(=O)N(C)C)C(=O)Nc1cncn(Cc2nc3cc(F)cc(CCC(F)(F)F)c3[nH]2)c1=O [Compound 103, methyl N-[(E,1S)-6-(dimethylamino)-1-[[1-[[5-fluoro-7-(3,3,3-trifluoropropyl)-1H-benzimidazol-2-yl]methyl]-6-oxo-pyrimidin-5-yl]carbamoyl]-6-oxo-hex-4-enyl]carbamate] | < 500 nM
COC(=O)N(C)[C@@H](CC/C=C/C(=O)N(C)C)C(=O)Nc1cccn(Cc2nc3cccc(OCc4ccc(F)cc4F)c3[nH]2)c1=O [Compound 115, methyl (S,E)-methyl(1-((1-((7-((2,4-difluorobenzyl)oxy)-1H-benzo[d]imidazol-2-yl)methyl)-2-oxo-1,2-dihydropyridin-3-yl)amino)-7-(dimethylamino)-1,7-dioxohept-5-en-2-yl)carbamate] | < 500 nM
COC(=O)N[C@@H](CC/C=C/C(=O)N(C)C)C(=O)Nc1cccn(Cc2nc3c(CC(C(F)(F)F)C(F)(F)F)cccc3n2C(=O)OC(C)(C)C)c1=O [Compound 148, (S,E)-tert-butyl 2-((3-(7-(dimethylamino)-2-((methoxycarbonyl)amino)-7-oxohept-5-enamido)-2-oxopyridin-1(2H)-yl)methyl)-4-(3,3,3-trifluoro-2-(trifluoromethyl)propyl)-1H-benzo[d]imidazole-1-carboxylate] | 500 to 5000 nM
CN(C)C(=O)/C=C/CC[C@H](NC(=O)OC(C)(C)C)C(=O)Nc1cccn(Cc2nc3cccc(C(O)C(C)(C)C)c3[nH]2)c1=O (stereo partly drawn) [Compound 160, tert-butyl ((2S,E)-7-(dimethylamino)-1-((1-((7-(1-hydroxy-2,2-dimethylpropyl)-1H-benzo[d]imidazol-2-yl)methyl)-2-oxo-1,2-dihydropyridin-3-yl)amino)-1,7-dioxohept-5-en-2-yl)carbamate] | < 500 nM
COC(=O)N[C@@H](CC/C=C/C(=O)N(C)C)C(=O)Nc1cncn(Cc2nc3cc(F)ccc3n2C)c1=O [Compound 174, methyl N-[(E,1S)-6-(dimethylamino)-1-[[1-[(5-fluoro-1-methyl-benzimidazol-2-yl)methyl]-6-oxo-pyrimidin-5-yl]carbamoyl]-6-oxo-hex-4-enyl]carbamate] | 5000 to 100000 nM
CN(C)C(=O)/C=C/CC[C@H](OC(=O)N(C)C)C(=O)Nc1cccn(Cc2nc3ccc(F)cc3n2Cc2ccccc2)c1=O [Compound 202, [(E,1S)-1-[[1-[(1-benzyl-6-fluoro-benzimidazol-2-yl)methyl]-2-oxo-3-pyridyl]carbamoyl]-6-(dimethylamino)-6-oxo-hex-4-enyl]N,N-dimethylcarbamate] | 500 to 5000 nM
CN(C)C(=O)/C=C/CC[C@H](OC(=O)N(C)C)C(=O)Nc1cccn(Cc2nc3cc(F)ccc3n2Cc2ccc(F)cc2)c1=O [Compound 207] | 500 to 5000 nM
CN(C)C(=O)/C=C/CC[C@H](OC(=O)N(C)C)C(=O)Nc1cccn(Cc2nc3ccc(F)cc3n2Cc2ccc(F)cc2)c1=O [Compound 208] | 500 to 5000 nM
[2H]C([2H])(C/C=C/C(=O)N(C)C)C(OC(=O)N(C)C)C(=O)Nc1cccn(Cc2cc3cc(F)ccc3n2C(=O)OC(C)(C)C)c1=O (stereo not drawn) [Compound 224] | < 500 nM
[2H]C([2H])(C/C=C/C(=O)N(C)C)C(OC(=O)N(C)C)C(=O)Nc1cccn(Cc2cc3cccc(CC(C)C)c3n2C(=O)OC(C)(C)C)c1=O (stereo not drawn) [Compound 247] | 500 to 5000 nM
[2H]C([2H])(C/C=C/C(=O)N(C)C)C(OC(=O)N(C)C)C(=O)Nc1cccn(Cc2cc3cc(F)cc(OCc4ccc(F)cc4F)c3n2C(=O)OC(C)(C)C)c1=O (stereo not drawn) [Compound 303] | 5000 to 100000 nM
[2H]C([2H])(C/C=C/C(=O)N(C)C)C(OC(=O)N(C)C)C(=O)Nc1cccn(Cc2cc3cc(F)cc(CC(C)C)c3n2C(=O)OC(C)(C)C)c1=O (stereo not drawn) [Compound 307] | 500 to 5000 nM
[2H]C([2H])(C/C=C/C(=O)N(C)C)C(OC(=O)N(C)C)C(=O)Nc1cccn(Cc2cc3cc(F)cc(CC(C)C)c3[nH]2)c1=O (stereo not drawn) [Compound 308] | < 500 nM
CC(C)Cn1c(Cn2ccnc(NC(=O)[C@H](CC/C=C/C(=O)N(C)C)OC(=O)N(C)C)c2=O)cc2cc(F)ccc21 [Compound 344, [(E,1S)-6-(dimethylamino)-1-[[4-[(5-fluoro-1-isobutyl-indol-2-yl)methyl]-3-oxo-pyrazin-2-yl]carbamoyl]-6-oxo-hex-4-enyl]N,Ndimethylcarbamate] | < 500 nM
COC(=O)N[C@@H](CC/C=C/C(=O)N(C)C)C(=O)Nc1cccn(Cc2cc3ncnc(CC(C)C)c3[nH]2)c1=O [Compound 459, methyl N-[(E,1S)-6-(dimethylamino)-1-[[1-[(4-isobutyl-5H-pyrrolo[3,2-d]pyrimidin-6-yl)methyl]-2-oxo-3-pyridyl]carbamoyl]-6-oxo-hex-4-enyl]carbamate] | < 500 nM
COC(=O)N[C@@H](CC/C=C/C(=O)N(C)C)C(=O)Nc1cccn(Cc2cc3c(F)cnc(C=C(C)C)c3[nH]2)c1=O [Compound 501] | < 500 nM
COC(=O)N[C@@H](CC/C=C/C(=O)N(C)C)C(=O)Nc1cccn(Cc2nc3c(N(C)C)nc(C)nc3[nH]2)c1=O [Compound 504] | 500 to 5000 nM
COC(=O)N[C@@H](CC/C=C/C(=O)N(C)C)C(=O)Nc1cccn(Cc2nc3c(CC(C)C)c(F)cnc3[nH]2)c1=O [Compound 525] | < 500 nM
COC(=O)N[C@@H](CC/C=C/C(=O)N(C)C)C(=O)Nc1cc(F)c(C)n(Cc2nc3c(F)cnc(CC(C)C)c3[nH]2)c1=O [Compound 583] | < 500 nM
COC(=O)N[C@@H](CC/C=C/C(=O)N(C)C)C(=O)Nc1cccn(Cc2cc3ncc(F)c(CC4CCC4)c3[nH]2)c1=O [Compound 585] | < 500 nM
COCc1ccc(NC(=O)[C@H](CC/C=C/C(=O)N(C)C)NC(=O)OC)c(=O)n1Cc1nc2c(F)cnc(CC(C)C)c2[nH]1 [Compound 599] | < 500 nM

Same assay, conditions: fluorescence of dansyl cadaverine cross-linked into N,N-dimethylated casein; 8 point titration; listed as 101

SMILES | IC50
COCc1ccc(NC(=O)[C@H](CC/C=C/C(=O)N(C)C)NC(=O)OC)c(=O)n1Cc1nc2c(F)cnc(CC(C)C)c2[nH]1 [Compound 599] | 500 to 5000 nM
